This data set deals with Caco-2 cells. The experiment in a line: Uptake by Caco-2 cell monolayer (fluorescence microscopy of DOX). The class given is cell-based. Particulars: Caco-2 monolayer, 17.2 μm, 10 min incubation. The protocol:
To investigate the cellular uptake of the released DOX from CN-DOX-IO by the small intestine in vitro, the monolayer of Caco-2 cells was incubated with CN-DOX-IO at a dosage of 17.2 μm for different lengths of time (10, 30 and 60 min). For comparison, cells incubated with DOX-IO and DOX were examined as controls. The intracellular accumulation of DOX was examined by the fluorescent microscope utilizing the fluorescence of DOX.

Consider `COc1cccc2c1C(=O)c1c(O)c3c(c(O)c1C2=O)C[C@@](O)(C(=O)CO)C[C@@H]3O[C@H]1C[C@H](N)[C@H](O)[C@H](C)O1` [free DOX, doxorubicin], for which the “intracellular localisation of DOX fluorescence signal” value was “observed in the nucleus”.

(Values after patent US10537531B2, “Casein coated drug-loaded iron oxide nanoparticles” (Emory University, priority 2014, dated 2020).)
